Source: article PMC4171606, “A novel copper(I) complex induces ER-stress-mediated apoptosis and sensitizes B-acute lymphoblastic leukemia cells to chemotherapeutic agents” (Oncotarget, 2014)

Experiments:
Type in all cases: cell-based, human
[1] = system: Jurkat (T-acute lymphoblastic leukemia); experiment: MTT growth inhibition, 72 h; conditions: mean ± SE
Protocol: (§1) [Cu(thp)4][PF6] (CP) was evaluated for its growth inhibition activity on a panel of twelve different human leukemia cell lines (five B-acute lymphoblastic leukemia, three T-acute lymphoblastic leukemia, three acute myeloid leukemia and one chronic myeloid leukemia). Cells were treated for 72 h with CP and cell viability was evaluated by MTT test. […] This abnormal high expression of proteasomal proteins and mRNA seem to be correlated to the hyperproliferation of these cancer cells and to the sensitivity towards proteasome inhibitors.
(§2) The human leukemia cell lines RS 4;11, SEM, REH, RCH-ACV, MHH-CALL2, Jurkat, CCRF-CEM, HSB2, HL-60, K562, THP-1, MV4;11 were purchased from the American Type Culture Collection. Cells were cultured in RPMI 1640 (Life Technologies, Italy) supplemented with 10% fetal bovine serum (FBS), glutamine (2 mM; Life Technologies, Italy), penicillin (100 U/ml; Life Technologies, Italy) and streptomycin (100 μg/ml; Life Technologies, Italy), and maintained at 37°C in a humidified atmosphere with 5% CO2. The cytotoxic activity of CP was determined using a standard 3-[4,5-dimethylthiazol-2-yl]-2,5-diphenyltetrazodium bromide (MTT) based colorimetric assay (Sigma-Aldrich, Italy). Briefly, cells were seeded at a density of 2×10^4 cells/well in 96-well microtiter plates. After 24 h, cells were exposed to the test compound. After different times, cell survival was determined by the addition of an MTT solution as previously described.

[2] = system: MV4;11 (acute myeloid leukemia); experiment: MTT growth inhibition, 72 h; conditions: MV4;11, 72 h, mean ± SE
Protocol: as §1, §2

[3] = system: REH (B-acute lymphoblastic leukemia); experiment: MTT growth inhibition, 72 h; conditions: mean ± SE
Protocol: as §1, §2

[4] = system: RCH-ACV (B-acute lymphoblastic leukemia); experiment: MTT growth inhibition, 72 h; conditions: mean ± SE
Protocol: as §1, §2

[5] = system: THP-1 (acute myeloid leukemia); experiment: MTT growth inhibition, 72 h; conditions: THP-1, 72 h, mean ± SE
Protocol: as §1, §2

[6] = system: MHH-CALL2 (B-acute lymphoblastic leukemia); experiment: MTT growth inhibition, 72 h; conditions: MHH-CALL2, 72 h, mean ± SE
Protocol: as §1, §2

[7] = system: HL60 (promyelocytic leulemia); experiment: MTT growth inhibition, 72 h; conditions: HL60, 72 h, mean ± SE
Protocol: as §1, §2

[8] = system: RS4;11 (B-acute lymphoblastic leukemia); experiment: MTT growth inhibition, 72 h; conditions: RS4;11, 72 h, mean ± SE
Protocol: as §1, §2

[9] = system: SEM (B-acute lymphoblastic leukemia); experiment: MTT growth inhibition, 72 h; conditions: mean ± SE
Protocol: as §1, §2

[10] = system: HSB-2 (T-acute lymphoblastic leukemia); experiment: MTT growth inhibition, 72 h; conditions: HSB-2, 72 h, mean ± SE
Protocol: as §1, §2

[11] = system: K562 (chronic myeloid leukemia); experiment: MTT growth inhibition, 72 h; conditions: K562, 72 h, mean ± SE
Protocol: as §1, §2

[12] = system: CCRF-CEM (T-acute lymphoblastic leukemia); experiment: MTT growth inhibition, 72 h; conditions: mean ± SE
Protocol: as §1, §2

[13] = system: PHA-stimulated PBMC; experiment: MTT viability of healthy cells, 24 h
Protocol: (§3) CP growth inhibitory activity was measured on primary cultures derived from pediatric patients affected by B-acute lymphoblastic leukemia. […] In particular, in resting and in PHA-stimulated PBMC, and in CD19^+ cells GI50 was higher than 10 μM confirming that CP preferentially affects leukemia cells.
(§4) FIGURE 6 CP effects on B-ALL primary cultures (A) Blast cells from six B-ALL patients were incubated for 24 h with different concentrations of CP. For the sake of comparison CD19^+ cells from peripheral blood of healthy donors, and PBMC were also incubated with CP in the presence or absence of PHA. Cell viability were assayed by MTT analysis. Data are represented as mean ± S.E.M of four independent experiments. (B) Bone marrow cells from healthy donors were treated for 24 h with CP (2.5 μM and 5 μM). Cell viability was evaluated on the whole population by flow cytometry after staining the cells with Annexin-V-FITC and PI. are represented as mean ± S.E.M of 3 independent experiments. (C) Western Blot analysis of GRP78 and CHOP expression, PARP cleavage and caspase-3 activation, on protein extracts of blast cells from B-ALL patients treated with CP (2.5 μM) for 12 h.
(§5) Peripheral blood mononuclear cells (PBMC) and bone marrow cells from healthy donors were obtained by separation on Lymphoprep (Fresenius KABI, Norge AS) gradient. After extensive washing, cells were resuspended (1.0 × 10^6 cells/ml) in RPMI1640 with 10% fetal bovine serum and incubated overnight in 96-well tissue culture microtiter plate. For cytotoxicity evaluations in proliferating PBMC cultures, non-adherent cells were resuspended in growth medium, containing 2.5 μg/ml phytohematoglutinin (PHA) (Irvine Scientific). To isolate B-lymphocyte, PBMC obtained by Lymphoprep (Fresenius KABI, Norge AS) separation were labeled with anti-CD19-APC (BD Biosciences, Italy) and collected by cell sorting.

[14] = system: resting PBMC; experiment: MTT viability of healthy cells, 24 h
Protocol: as §3, §4, §5

[15] = system: CD19+ cells from peripheral blood of healthy donors; experiment: MTT viability of healthy cells, 24 h
Protocol: as §3, §4, §5

[16] = system: Blast cells from B-ALL patients; experiment: MTT growth inhibition on primary cultures, 24 h; conditions: B-acute lymphoblastic leukemia patients primary cultures
Protocol: as §3
as §4, with “(B) Bone marrow cells from healthy donors were treated for 24 h with CP (2.5 μM and 5 μM).” left out, “(C) Western Blot analysis of GRP78 and CHOP expression, PARP cleavage and caspase-3 activation, on protein extracts of blast cells from B-ALL patients treated with CP (2.5 μM) for 12 h.” left out
The human leukemia cell lines RS 4;11, SEM, REH, RCH-ACV, MHH-CALL2, Jurkat, CCRF-CEM, HSB2, HL-60, K562, THP-1, MV4;11 were purchased from the American Type Culture Collection. […] The cytotoxic activity of CP was determined using a standard 3-[4,5-dimethylthiazol-2-yl]-2,5-diphenyltetrazodium bromide (MTT) based colorimetric assay (Sigma-Aldrich, Italy). […] After different times, cell survival was determined by the addition of an MTT solution as previously described. […]

F[P-](F)(F)(F)(F)F.OCP(CO)CO.OCP(CO)CO.OCP(CO)CO.OCP(CO)CO.[Cu+] [CP, [Cu(thp)4][PF6]]
GI50 [1]: 16.7 ± 2.6 µM | GI50 [2]: 1.2 ± 0.2 µM | GI50 [3]: 4.2 ± 0.2 µM | GI50 [4]: 0.9 ± 0.2 µM | GI50 [5]: 17.2 ± 1 µM | GI50 [6]: 1.9 ± 0.1 µM | GI50 [7]: 12.1 ± 2.8 µM | GI50 [8]: 0.3 ± 0.01 µM | GI50 [9]: 1.6 ± 0.06 µM | GI50 [10]: 15.1 ± 0.26 µM | GI50 [11]: 23.2 ± 1 µM | GI50 [12]: 3.9 ± 0.22 µM | GI50 [13]: > 10 µM | GI50 [14]: > 10 µM | GI50 [15]: > 10 µM | GI50 [16]: 2.3 µM
